Values after ≈ are worked out from the molar mass of the structure shown. Where two headings read alike, the source gives them in different places.
Legend:
B16 melanoma = assay: In vivo antitumor activity against B16 melanoma in mice (Q4Dx3, ip); set-up: species or system mouse (male BDF1); details: for T/C % of MST / No. of survivors/tested on day 50: Q4D × 3, ip
Procedure: (§1) In vivo antitumor activity of the above five derivatives was tested in the lymphocytic leukemia P388 and melanoma B16 systems. Female CDF1 (for P388) and male BDF1 (for B16) mice were inoculated by ip injection at 10^6 P388 cells and 0.5 ml of a 10% B16 brei per mouse, respectively (day 0).
(§2) The percent increase of median survival time (MST) of treated animals over that of untreated control animals was determined and reported as T/C %.

B16-F10 melanoma cells = assay: cells; details: Mus musculus, B16-F10, 72 h, read-out: Cytotoxicity IC50
Procedure: For in vitro cytotoxicity experiment, murine melanoma B16-F10 cells were grown and maintained in Eagle's minimum essential medium (Nissui), which contains kanamycin (60 μg/ml), supplemented with heat-inactivated fetal calf serum (10%) and non-essential amino acids (0.6%) at 37° C. under a humidified atmosphere in a 5% CO2 incubator. Exponentially growing B16-F10 cells were harvested, counted and suspended in the culture medium at the concentration of 2.0×10^4 cells/ml. The cell suspension (180 μl) was planted into wells of a 96-well microtiter plate and incubated for 24 hours. Test compound (20 μl) were added to the wells and the plates were further incubated for 72 hours. The cytotoxic activity was colorimetrically determined at 540 nm after staining viable cells with neutral red solution.

P388 leukemia = assay: In vivo antitumor activity against lymphocytic leukemia P388 in mice (Q1Dx3, ip); set-up: species or system mouse (female CDF1); details: for T/C % of MST: Q1D × 3, ip; for minimum effective dose (MED) compared with elsamicin A: T/C ≥125 significant
Procedure: as §1, §2

melanotic melanoma B16 [1] = details: B16, in vivo; cited from earlier work
lymphoid leukemia L1210 [2] = details: L1210, in vitro; cited from earlier work
lymphoid leukemia L1210 [3] = details: L1210, in vivo; cited from earlier work
leukemia P388 [4] = details: P388, in vitro; cited from earlier work
[5] = test system: aerobic gram-positive bacteria; details: cited from earlier work
melanotic melanoma B16 [6] = details: B16, in vitro; cited from earlier work
anaerobic bacteria = details: cited from earlier work
leukemia P388 [7] = details: P388, in vivo; cited from earlier work

SMILES | T/C % of MST (B16 melanoma; B16, 0.1 mg/kg/day) | T/C % of MST (B16 melanoma; B16, 0.3 mg/kg/day) | T/C % of MST (B16 melanoma; B16, 1 mg/kg/day) | T/C % of MST (B16 melanoma; B16, 3 mg/kg/day) | T/C % of MST (B16 melanoma; B16, 10 mg/kg/day) | IC50 (B16-F10 melanoma cells) | T/C % of MST (P388 leukemia; P388, 0.1 mg/kg/day) | T/C % of MST (P388 leukemia; P388, 0.3 mg/kg/day) | T/C % of MST (P388 leukemia; P388, 1 mg/kg/day) | T/C % of MST (P388 leukemia; P388, 3 mg/kg/day) | T/C % of MST (P388 leukemia; P388, 10 mg/kg/day) | T/C % of MST (P388 leukemia; P388, 20 mg/kg/day) | minimum effective dose (MED) compared with elsamicin A (P388 leukemia; P388 system) | No. of survivors/tested on day 50 (B16 melanoma; B16, 10 mg/kg/day) | No. of survivors/tested on day 50 (B16 melanoma; B16, 3 mg/kg/day) | also measured
COC1C(N)C(OC2C(Oc3cccc4c(O)c5c(=O)oc6ccc(C)c7c(=O)oc(c34)c5c67)OC(C)C3OC(c4ccccc4)OC32C)OC(C)C1O (stereo not shown) [Compound 6c, 3',4'-O-Benzylideneelsamicin A] | 121% | 114% | 136% | 179% | 186% | 0.07 µg/mL (≈ 0.0944 µM) | 110% | 130% | 150% | 165% | 180% | Tox | as active as the parent compounds |  |  | 
COC1OC2C(C)OC(Oc3cccc4c(O)c5c(=O)oc6ccc(C)c7c(=O)oc(c34)c5c67)C(OC3OC(C)C(O)C(OC)C3N)C2(C)O1 (stereo not shown) [Compound 6d, 3',4'-O-Methoxymethylideneelsamicin A] | 120% | 137% | 167% | 283% | ≥ 333% | 0.05 µg/mL (≈ 0.0719 µM) | 124% | 137% | 167% | 167% | 224% | Tox | as active as the parent compounds | 3/4 |  | response / therapeutic activity (in words) (B16 melanoma; B16 system): extremely potent therapeutic activity; T/C % values compared with elsamicin A (1) (B16 melanoma; B16 system, 3 and 10 mg/kg/day): higher T/C % values
COC1C(N)C(OC2C(Oc3cccc4c(O)c5c(=O)oc6ccc(C)c7c(=O)oc(c34)c5c67)OC(C)C3OC(C)(C)OC32C)OC(C)C1O (stereo not shown) [Compound 6a, 3',4'-O-Isopropylideneelsamicin A] | 105% | 116% | 166% | 192% | 82% | 0.025 µg/mL (≈ 0.036 µM) | 120% | 140% | 170% | 210% |  |  | as active as the parent compounds |  |  | 
COC1C(N)C(OC2C(Oc3cccc4c(O)c5c(=O)oc6ccc(C)c7c(=O)oc(c34)c5c67)OC(C)C(O)C2(C)O)OC(C)C1O (stereo not shown) [Compound 1, Elsamicin A] | 116% | 139% | 179% | ≥ 216% | ≥ 298% | 0.03 µg/mL (≈ 0.0459 µM) | 123% | 140% | 155% | 180% | 190% | Tox |  | 2/12 | 2/12 | activity against murine tumor cells (melanotic melanoma B16 [1]): exerts activity; activity against murine tumor cells (lymphoid leukemia L1210 [2]): exerts activity; activity against murine tumor cells (lymphoid leukemia L1210 [3]): exerts activity; activity against murine tumor cells (leukemia P388 [4]): exerts activity; antibacterial activity [5]: exhibits antibacterial activity; activity against murine tumor cells (melanotic melanoma B16 [6]): exerts activity; antibacterial activity (anaerobic bacteria): exhibits antibacterial activity; activity against murine tumor cells (leukemia P388 [7]): exerts activity
COC1C(N)C(OC2C(Oc3cccc4c(O)c5c(=O)oc6ccc(C)c7c(=O)oc(c34)c5c67)OC(C)C(OC3CCCCO3)C2(C)O)OC(C)C1O (stereo not shown) [Compound 8, 4'-O-Tetrahydropyranylelsamicin A] | 133% | 159% | 248% | ≥ 281% | ≥ 330% | 0.04 µg/mL (≈ 0.0542 µM) | 130% | 145% | 168% | 190% | 225% | Tox | three times more potent | 2/4 | 1/4 | No. of survivors/tested on day 50 (B16 melanoma; B16, 20 mg/kg/day): 3/4; T/C % of MST (B16 melanoma; B16, 20 mg/kg/day): ≥ 370%; MED and T/C % values compared with elsamicin A (1) (B16 melanoma; B16 system): better than elsamicin A (1); survivors on day 50 (in words) (B16 melanoma; B16 system, 3~20 mg/kg/day): Some survivors; T/C % values (in words) (P388 leukemia; P388 system): high T/C % values
COC1C(N)C(OC2C(Oc3cccc4c(O)c5c(=O)oc6ccc(C)c7c(=O)oc(c34)c5c67)OC(C)C3OC4(CCCCC4)OC32C)OC(C)C1O (stereo not shown) [Compound 6b, 3',4'-O-Cyclohexylideneelsamicin A] |  | 111% | 132% | 175% | 200% | 0.04 µg/mL (≈ 0.0545 µM) |  | 120% | 140% | 175% | 165% |  |  |  |  | 

— patent publication US5229371A, “Chemical modification of elsamicin A at the 3' and/or 4' OH groups” (Bristol-Myers Squibb Company, priority 1992, dated 1993)
